*1 amine or outer side, *2 acyl side, *3 side chain or, on linkers, in order; H or OH if unused. Where a SMILES comes first, the peptide text is derived from it. The star is where a group is joined. X1 = O=C(CCCC[C@@H]1SC[C@@H]2NC(=O)N[C@@H]21)NCCCOCCOCCOCCCN*; Suc = O=C(CCC(=O)[*:2])[*:1]
System: 266 human PDZ domains (PDZome)
Assay: Holdup assay (chromatographic retention, PDZome-binding profile, BI)
Design: key to maximal BI / Max BI / BI: binding intensity: 0.00 = no binding, 1.00 = maximal binding; Log(Kd): unit not given here
Procedure: The holdup method is a chromatographic approach in solution developed in our group that allows to measure the binding strength of a peptide, attached to a resin, against a library of domains of a same family. We initially proposed this method to explore the interaction between PBM peptides and the human PDZ domains. Briefly, a soluble cell lysate containing individually overexpressed PDZ domain is incubated until equilibrium with a calibrated amount of streptavidin-resin saturated either with the target biotinylated PBM peptide or with biotin as a reference. The flow-throughs containing the unbound protein fraction are recovered by filtration and loaded on a capillary electrophoresis instrument to quantify the amount of remaining free PDZ. The stronger the steady-state depletion of the PDZ domain in the flow-through as compared to the reference, the stronger the PDZ/PBM binding interaction. The assay is particularly suited to quantitatively evaluate and compare large numbers of interactions. This method delivers, for each PBM/PDZ pair, a "binding intensity" (BI), whose value can in principle range from 0.00 (no binding event detected) to 1.00 (maximal binding event). The approach has been automated and the human PDZ library was recently extended to the complete 266 PDZ domains known in human proteome. […] The high accuracy and efficiency of the holdup assay have been validated previously. Very recently, a manual version of the holdup assay with purified samples and using widespread benchtop equipment has been implemented and has proven to be reliable.
The 266 PDZ domains that constitute the PDZ library (“PDZome V.2”) used in the present work were produced using constructs with optimized boundaries as described previously. All the genes were fused to Maltose-Binding Protein (MBP) or Thioredoxin (THR) tag often used to facilitate the solubilisation of the over-expressed protein, by cloning them into the pETG41A or pETG20A plasmid, respectively. […] The expressed tag-PDZ concentrations were quantified using capillary gel electrophoresis and cell lysates were diluted to reach approximately 5 μM tag-PDZ before freezing in 96-well plates. A detailed protocol of the PDZ library production, expression and benchmarking can be found in [32]. PDZ domains are named according to their originating protein name followed by the PDZ number (e.g. NHERF1-1 as the first PDZ domain of the NHERF1 protein).
The holdup assay was performed on a Tecan freedom Evo200 robot with 384-well plates in singlicate for the three 11-mer PTEN variants and the 13-mer PTEN peptide as described in [31, 32]. Briefly, prior to interaction assay, 2.5 μL of streptavidin resin was saturated in each well with 20 μL of biotinylated PBM peptides (42 μM) and then washed twice with an excess of free biotin, while the reference resin was incubated only with biotin. Right before the holdup experiment, the PDZ library was spiked with an internal standard of lysozyme. Then, the biotin- or PBM-saturated resin was incubated, each in a distinct well of a 384-well plate, with complete cell lysates diluted so that the concentration of the tag-PDZ present in the crude extract is adjusted at 4 μM. After a sufficient time to reach complex equilibrium (15 min.), a fast and mild filtration step is performed and the tag-PDZ concentrations were measured by capillary electrophoresis instrument (LabChip GXII, PerkinElmer, Massachusets, USA). Standard markers were used to convert migration time into molecular weight on the LabChip software and inappropriate molecular weight markers were corrected or excluded.
Holdup data quality check and processing […]

[1] = PDZ domain PARD3-1, first of two lines so named (r186)

SMILES: CC[C@H](C)[C@H](NC(=O)[C@H](CCC(N)=O)NC(=O)[C@@H](NC(=O)[C@H](Cc1c[nH]cn1)NC(=O)[C@H](CCC(N)=O)NC(=O)[C@H](CC(=O)O)NC(=O)[C@H](CCC(=O)O)NC(=O)[C@H](CC(=O)O)NC(=O)[C@H](Cc1ccccc1)NC(=O)[C@@H]1CCCN1C(=O)CCC(=O)NCCCOCCOCCOCCCNC(=O)CCCC[C@@H]1SC[C@@H]2NC(=O)N[C@@H]21)[C@@H](C)O)C(=O)N[C@H](C(=O)N[C@@H](CCCCN)C(=O)N[C@H](C(=O)O)C(C)C)[C@@H](C)O [PTEN_13] ({X1-Suc}-PFDEDQHTQITKV-OH)
- number of additional new PDZ partners not detected for PTEN_11 (BI>0.20, compared with PTEN_11): 24
- BI (PDZ domain MPDZ-2): 0.095
- BI (PDZ domain MPDZ-3): 0.139
- BI (PDZ domain MPDZ-4): 0.035
- BI (PDZ domain MPDZ-5): -0.002
- BI (PDZ domain MPDZ-6): -0.029
- BI (PDZ domain MPDZ-7): 0.23
- BI (PDZ domain MPDZ-8): 0.039
- BI (PDZ domain MPDZ-9 (gene NHERF2, 2)): -0.021
- BI (PDZ domain MPDZ-12): 0.024
- BI (PDZ domain MPDZ-13): 0.225
- BI (PDZ domain MPP1-1): -0.074
- BI (PDZ domain MPP2-1): -0.014
- BI (PDZ domain MPP3-1): -0.03
- BI (PDZ domain MPP4-1): 0
- BI (PDZ domain MPP5-1): 0.002
- BI (PDZ domain MPP6-1): -0.068
- BI (PDZ domain MPP7-1): -0.02
- BI (PDZ domain NHERF1-2): 0.132
- BI (PDZ domain NHERF3-1): 0.161
- BI (PDZ domain NHERF3-2): 0.06
- BI (PDZ domain NHERF3-3): 0.068
- BI (PDZ domain NHERF3-4): -0.008
- BI (PDZ domain NHERF4-1): 0.09
- BI (PDZ domain NHERF4-2): 0.132
- BI (PDZ domain NHERF4-3): 0.208
- BI (PDZ domain NHERF4-4): -0.036
- BI (PDZ domain NOS1-1): 0.002
- BI [1]: 0.146
- Log(Kd) [1]: 4.018
- BI (PDZ domain PARD3-2): -0.023
- BI (PDZ domain PARD3B-1): -0.096
- BI (PDZ domain PARD3B-2): 0.088
- BI (PDZ domain PARD3B-3): 0.134
- BI (PDZ domain PARD6A-1): -0.115
- BI (PDZ domain PARD6G-1): -0.065
- BI (PDZ domain PCLO-1): -0.006
- BI (PDZ domain PDLIM1-1): -0.067
- BI (PDZ domain PDLIM2-1): -0.078
- BI (PDZ domain PDLIM3-1): 0.139
- BI (PDZ domain PDLIM4-1): 0.003
- BI (PDZ domain PDLIM5-1): -0.025
- BI (PDZ domain PDLIM7-1): 0.039
- BI (PDZ domain PDZD2-1): -0.006
- BI (PDZ domain PDZD2-2): 0.054
- BI (PDZ domain PDZD2-3): -0.045
- BI (PDZ domain PDZD2-4): 0.107
- BI (PDZ domain PDZD2-5): 0.195
- BI (PDZ domain PDZD2-6): -0.066
- BI (PDZ domain PDZD4-1): 0.025
- BI (PDZ domain PDZD7-1): -0.034
- BI (PDZ domain PDZD7-2): -0.061
- BI (PDZ domain PDZD7-3): 0.811
- BI (PDZ domain PDZD8-1): 0.038
- BI (PDZ domain PDZD9-1): 0.075
- BI (PDZ domain PDZD11-1): -0.022
- BI (PDZ domain PDZRN3-1): 0.024
- BI (PDZ domain PDZRN3-2): 0.032
- BI (PDZ domain PDZRN4-1): -0.022
- BI (PDZ domain PDZRN4-2): -0.019
- BI (PDZ domain PICK1-1): 0.089
- BI (PDZ domain PPP1R9A-1): -0.068
- BI (PDZ domain PPP1R9B-1): -0.064
- BI (PDZ domain PREX1-1): -0.02
- BI (PDZ domain PREX1-2): 0.087
- BI (PDZ domain PREX2-1): 0.032
- BI (PDZ domain PREX2-2): -0.046
- BI (PDZ domain PRX-1): -0.006
- BI (PDZ domain PSCDBP-1): 0.094
- BI (PDZ domain PSMD9-1): 0.022
- BI (PDZ domain PTPN3-1): 0.015
- BI (PDZ domain PTPN4-1): 0.026
- BI (PDZ domain PTPN13-1): 0.009
- BI (PDZ domain PTPN13-3): -0.036
- BI (PDZ domain PTPN13-5): 0.022
- BI (PDZ domain RADIL-1): 0.092
- BI (PDZ domain RAPGEF2-1): -0.023
- BI (PDZ domain RAPGEF6-1): -0.02
- BI (PDZ domain RGS3-1): 0.249
- BI (PDZ domain RGS12-1): 0.04
- BI (PDZ domain RHPN1-1): 0.479
- BI (PDZ domain RHPN2-1): 0.033
- BI (PDZ domain RIMS1-1): -0.009
- BI (PDZ domain RIMS2-1): -0.031
- BI (PDZ domain SCRIB-1): 0.173
- BI (PDZ domain SCRIB-2): -0.031
- BI (PDZ domain SCRIB-4): -0.007
- BI (PDZ domain SDCBP2-1): 0.022
- BI (PDZ domain SDCBP2-2): -0.007
- BI (PDZ domain SDCBP-2): -0.032
- BI (PDZ domain SHROOM2-1): -0.059
- BI (PDZ domain SHROOM3-1): -0.047
- BI (PDZ domain SHROOM4-1): -0.086
- BI (PDZ domain SIPA1-1): -0.045
- BI (PDZ domain SIPA1L1-1): 0.023
- BI (PDZ domain SIPA1L2-1): -0.04
- BI (PDZ domain SIPA1L3-1): -0.026
- BI (PDZ domain SNTA1-1): 0.142
- BI (PDZ domain SNTB1-1): 0.224
- BI (PDZ domain SNTG1-1): 0.14
- BI (PDZ domain SNTG2-1): 0.015
- number of PDZ domains identified as potential binders (BI>0.20) (holdup, singlicate, threshold BI>0.20): 24 PDZ domains
- maximal BI (holdup, singlicate, highest BI in the PDZome profile, BI standard error ~0.07): 0.81
- effect on PDZ binding profile (in words) (holdup/FP profile, compared with PTEN_11): markedly stronger compared to the affinities observed for the same PDZ partners in PTEN_11
- Max BI (maximum over PDZome): 0.88

— paper PMC7774954, “Interactomic affinity profiling by holdup assay: Acetylation and distal residues impact the PDZome-binding specificity of PTEN phosphatase” (PLoS ONE, 2020)
